Source: paper PMC4503980 (Scientific Reports, 2015)

Experiments:
Format in all cases: binding
[1] = molecular target: T1, PDZ1 of PSD-95 (Homo sapiens, UniProt P78352); assay: FP inhibition assay, Cy5-GluN2B probe / PDZ1; conditions: concentrations reaching 500–1800 μM; Cy5-GluN2B 50 nM; [PDZ1] = 10 μM (ZL006) or 18 μM (IC87201)
T1 construct: PDZ1 (61-151); made in house; host or cells: E. coli BL21-DE3 pLysS
Experimental: Fluorescent probes were made by attaching fluorophores (Cy5) to C-terminal 10- or 11-mer (C10 or C11) peptide ligands representing canonical and natural occurring protein partners (Supplementary Table S1). […] (Fig. 2).
(b) Cy5-GluN2B as probe (50 nM), [PDZ2] = 6 μM. (c) Cy5-CRIPT as probe (50 nM), [PDZ3] = 5 μM. […] Error bars indicate SEM based on three individual measurements. […]
(§1) Incubation time was 10–15 minutes (room temperature), and the assay was performed in a 1 × TBS buffer (150 mM NaCl, 10 mM Tris, pH 7.4) using black flat-bottom 384-well plates (Corning Life Sciences, NY) and a Safire2 plate-reader (Tecan, Männedorf, Switzerland). […] TAMRA- and Cy5-probes were measured at excitation/emission values of 530/585 nm (bandwidth = 20 nm) and 635/670 nm (bandwidth = 15 nm), respectively. […]
FP values were fitted to the general equation: Y = Bottom + (Top–Bottom)/[1 + (10^(X-logIC50)*HillSlope)], where X is the logarithmic value of peptide/compound concentration, and Y is the experimental FP values. Competitive inhibition constants, Ki values, were calculated from the IC50 values to quantify affinities between test substance and protein[42]. […]

[2] = molecular target: T2, TAMRA-nNOS/PSD-95-PDZ2 interaction (Homo sapiens, UniProt P29475+P78352, V36C); assay: 'direct' FP assay, TAMRA-nNOS / PDZ2 (saturation and inhibition)
T2 construct: nNOS-PDZ (12–130, human); PDZ2 (155-249); made in house; host or cells: E. coli
Experimental: The assay was established by creating a fluorescent version of nNOS-PDZ by TAMRA-labelling nNOS-PDZ via an introduced cysteine residue (V36C). […] However, up to 7.3 μM no inhibition of TAMRA-nNOS/PSD-95-PDZ interactions could be measured (data not shown).
(a) Saturation curves between TAMRA-nNOS (5 nM) and PDZ1, PDZ2, and PDZ1-2 of PSD-95. […] Error bars indicate SEM based on three individual measurements.
nNOS-PDZ (12–130, human) and α-Syntrophin-PDZ (82–200, human), both comprising an N-terminal His-tag/FXa-site sequence ([…]), were likewise expressed in E. coli and purified by HisTrap chromatography followed by gel-filtration as described in details previously. To make the TAMRA-labelled nNOS-PDZ, mutant nNOS-PDZ (V36C) protein was generated by standard site-directed mutagenesis and characterized as described previously. […]
as §1

[3] = molecular target: T3, extended nNOS-PDZ (Mus musculus, UniProt Q9Z0J4); assay: ITC titration into extended nNOS-PDZ; conditions: 100 μM protein in cell, 750 μM compound in syringe, 1% DMSO, pH 6.3, 25 °C
T3 construct: nNOS-PDZ (residues 12–134, Uniprot Q9JJ30); made in house
Description: Unlike the FP experiments above, which rely on inhibition of interaction partners, the ITC method is a direct measure of binding, regardless of where it takes place on the protein.
Figure 5 ITC curves. Plots showing titrations into PDZ domains fitted to a one-site model.
For isothermal titration calorimetry (ITC) and NMR, PSD-95-PDZ2 (157–249, human) was expressed and purified as described previously. The sequence for the extended Mus musculus nNOS-PDZ (residues 12–134, Uniprot Q9JJ30) was sub-cloned into a pETM11 vector using cloning sites Nco1 and Kpn1, and the protein was expressed and purified following a similar protocol to that used for the production of PSD-95-PDZ2.
All ITC experiments were carried out at 25 °C on an iTC200 Microcalorimeter (GE Healthcare) with a 200 μL cell capacity and 40 μL syringe volume. The buffer used for all solutions was 20 mM phosphate buffer at pH 6.3; each experiment consisted of an initial injection of 0.5 μL, followed by fifteen 2.39 μL injections before a final injection of 1.89 μL. […] In both cases no heat exchange was detected, confirming that there was appropriate match of buffer conditions with no indication of dilution effects. […] For the nNOS-PDZ/PSD-95-PDZ2 interaction, 100 μM PDZ2 in the cell was titrated with 750 μM nNOS-PDZ. […] All data was analysed using the Origin®7 software programme.

T3 sequence (Q9Z0J4 12-134): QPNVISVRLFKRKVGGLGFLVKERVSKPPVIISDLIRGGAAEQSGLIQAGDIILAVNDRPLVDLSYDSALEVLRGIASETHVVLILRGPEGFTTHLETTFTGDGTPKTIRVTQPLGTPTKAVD

Row | Compound | inhibition of probe-PDZ interaction (PDZ1) [1] | inhibition of TAMRA-nNOS/PDZ2 interaction ([2]; up to 7.3 μM (fluorescence artefacts above), data not shown) | binding to extended nNOS-PDZ by ITC [3] | inhibition of TAMRA-nNOS/PDZ2 interaction ([2]; tested at up to 1200 μM, TAMRA-nNOS 5 nM, PDZ2 2.5 μM)
1 | Oc1c(Cl)cc(Cl)cc1CNc1ccc2[nH]nnc2c1 [IC87201, 2-((1H-Benzo[d][1–3]triazol-5-ylamino)methyl)-4-6-dichlorophenol] | did not inhibit | no inhibition | does not bind | –
2 | O=C(O)c1ccc(NCc2cc(Cl)cc(Cl)c2O)cc1O [ZL006, 4-((3,5-Dichloro-2-hydroxybenzyl)amino)-2-hydroxybenzoic acid] | did not inhibit | – | binding was too weak to produce a binding isotherm | no activity
